Patent US20110245242A1, “Heterocyclically Substituted Anilinopyrimides” (Bayer CropScience AG, priority 2008, published 2011)

Columns and labels:
Type in all cases: physicochemical
physchem = details: pH 7.8
Protocol: The log P values were measured in accordance with EEC Directive 79/831 Annex V.A8 by HPLC (High Performance Liquid Chromatography) on reversed-phase columns (C 18) using the methods below: [c] The LC-MS determination in the neutral range was carried out at pH 7.8 using the mobile phases 0.001 molar aqueous ammonium bicarbonate solution and acetonitrile linear gradient from 10% acetonitrile to 95% acetonitrile.

[1] = log P by LC-MS, method [b], acid range pH 2.7; details: pH 2.7
Protocol: The log P values were measured in accordance with EEC Directive 79/831 Annex V.A8 by HPLC (High Performance Liquid Chromatography) on reversed-phase columns (C 18) using the methods below:
[b] The LC-MS determination in the acid range was carried out at pH 2.7 using the mobile phases 0.1% aqueous formic acid and acetonitrile (contains 0.1% formic acid)
linear gradient from 10% acetonitrile to 95% acetonitrile.

[2] = log P by HPLC on reversed-phase columns (C 18), method [a], acidic range pH 2.3; details: pH 2.3
Protocol: The log P values were measured in accordance with EEC Directive 79/831 Annex V.A8 by HPLC (High Performance Liquid Chromatography) on reversed-phase columns (C 18) using the methods below: [a] The determination was carried out in the acidic range at pH 2.3 using the mobile phases 0.1% aqueous phosphoric acid and acetronitrile linear gradient from 10% acetonitrile to 95% acetronitrile.

Q: Which log p (physchem) does the source give for `CSCC(C)(C)Nc1nc(Nc2ccc(N3CCOC3=O)cc2)ncc1Cl` [Example 40] here?
A: 3.09[c]

Q: Which log p [1] does the source give for `CC1CC(=O)N(c2cccc(Nc3ncc(Br)c(NC4CC4)n3)c2)C1` (stereo not drawn) [Example 99] here?
A: 1.85[b]

Q: And the log p (physchem)?
A: 2.79[c];

Q: What does the source list for `C[C@H]1CCN(c2cccc(Nc3ncc(Cl)c(NC4CC4)n3)c2)C1=O` [Example 124]?
A: log p [2]: 2.86[a];; log p [1]: 2.86[b]

Q: What does the source list for `CC1CCC(=O)N1c1cccc(Nc2ncc(Cl)c(NC3CC3)n2)c1` (stereo not drawn) [Example 125]?
A: log p [2]: 2.59[a];; log p [1]: 2.59[b]

Q: Which results are given for `CC1CCC(=O)N1c1cccc(Nc2ncc(Cl)c(NC3CC3)n2)c1` (stereo not drawn) [Example 126]?
A: log p [2]: 2.59[a];; log p [1]: 2.59[b]

Q: For `CC(C)Nc1nc(Nc2cccc(N3CCC(C)C3=O)c2)ncc1Cl` (stereo not drawn) [Example 185], which log p [1] is on record?
A: 1.82[b]

Q: And the log p (physchem)?
A: 3.07[c];

Q: Which log p [1] does the source give for `CC1CCN(c2cccc(Nc3ncc(Cl)c(N(C)C4CC4)n3)c2)C1=O` (stereo not drawn) [Example 186] here?
A: 2.66[b]

Q: And the log p (physchem)?
A: 3.48[c];

Q: Which results are given for `CC1CC(=O)N(c2cccc(Nc3ncc(Cl)c(NC4CCC4)n3)c2)C1=O` (stereo not drawn) [Example 188]?
A: log p [1]: 1.76[b]; log p (physchem): 2.67[c];

Q: Which log p (physchem) does the source give for `CCOC(=O)[C@@H]1CCC(=O)N1c1cccc(Nc2ncc(Br)c(NC3CC3)n2)c1` [Example 191] here?
A: 2.65[c]

Q: What does the source list for `CCOC(=O)[C@@H]1CCC(=O)N1c1cccc(Nc2ncc(C(F)(F)F)c(NC3CC3)n2)c1` [Example 193]?
A: log p [1]: 2.56[b]; log p (physchem): 2.82[c];

Q: For `CC(C)Nc1nc(Nc2ccc(F)c(N3CCCC3=O)c2)ncc1Cl` [Example 197], which log p [1] is on record?
A: 1.55[b]

Q: And the log p (physchem)?
A: 2.55[c];

Q: Which log p [1] does the source give for `CNc1nc(Nc2ccc(F)c(N3CCCC3=O)c2)ncc1Cl` [Example 199] here?
A: 1.28[b]

Q: And the log p (physchem)?
A: 1.91[c];

Q: Which results are given for `CCNc1nc(Nc2cccc(N3CCCC3=O)c2)ncc1Cl` [Example 204]?
A: log p [1]: 1.29[b]; log p (physchem): 2.24[c];

Q: For `CCN(C)c1nc(Nc2cccc(N3CCCC3=O)c2)ncc1Cl` [Example 207], which log p [1] is on record?
A: 1.79[b]

Q: And the log p (physchem)?
A: 2.91[c];

Q: With `CCC1CC(C)C(=O)N1c1cccc(Nc2ncc(Br)c(NC3CC3)n2)c1` (stereo not drawn) [Example 208] as the molecule, how does the log p [1] read?
A: 2.32[b]

Q: And the log p (physchem)?
A: 3.31[c];

Q: What does the source list for `CCC1CC(C)C(=O)N1c1cccc(Nc2ncc(Br)c(NCC3CC3)n2)c1` (stereo not drawn) [Example 209]?
A: log p [1]: 2.41[b]; log p (physchem): 3.69[c];

Q: Which log p [1] does the source give for `CCC1CC(C)C(=O)N1c1cccc(Nc2ncc(Br)c(NC(C)C)n2)c1` (stereo not drawn) [Example 210] here?
A: 2.36[b]

Q: And the log p (physchem)?
A: 3.7[c];

Q: Which log p [1] does the source give for `CCC1CC(C)C(=O)N1c1cccc(Nc2ncc(Cl)c(NCC3CC3)n2)c1` (stereo not drawn) [Example 212] here?
A: 2.33[b]

Q: What about the log p (physchem) of the same molecule?
A: 3.54[c];

Q: Which results are given for `CC1CC1Nc1nc(Nc2cccc(N3CCCCC3=O)c2)ncc1Cl` (stereo not drawn) [Example 213]?
A: log p [1]: 1.7[b]; log p (physchem): 2.48[c];

Q: Which log p [1] does the source give for `CC1CC1Nc1nc(Nc2cccc(N3C(=O)OCC3C)c2)ncc1Cl` (stereo not drawn) [Example 215] here?
A: 1.84[b]

Q: What about the log p (physchem) of the same molecule?
A: 2.79[c];

Q: What does the source list for `CC1CC1Nc1nc(Nc2cccc(N3C(=O)OC[C@H]3C(C)C)c2)ncc1Cl` (stereo partly drawn) [Example 216]?
A: log p [1]: 2.43[b]; log p (physchem): 3.46[c];

Q: With `O=C1CCCN1c1cccc(Nc2ncc(C(F)(F)F)c(NCC(F)(F)C(F)(F)F)n2)c1` [Example 218] as the molecule, how does the log p [1] read?
A: 3.1[b]

Q: What about the log p (physchem) of the same molecule?
A: 3.07[c];

Q: What does the source list for `CC1CC1Nc1nc(Nc2cccc(N3CCCCC3=O)c2)ncc1Br` (stereo not drawn) [Example 223]?
A: log p [1]: 1.81[b]; log p (physchem): 2.67[c];

Q: What does the source list for `O=C1CCCN1c1cccc(Nc2ncc(Cl)c(N3CCCCC3)n2)c1` [Example 225]?
A: log p [1]: 2.57[b]; log p (physchem): 3.53[c];

Q: With `O=C1CCCN1c1cccc(Nc2ncc(Cl)c(N3CCOCC3)n2)c1` [Example 226] as the molecule, how does the log p [1] read?
A: 1.98[b]

Q: And the log p (physchem)?
A: 2.29[c];

Q: Which log p [1] does the source give for `CC1CC1Nc1nc(Nc2cccc(N3CCOC3=O)c2)ncc1Br` (stereo not drawn) [Example 227] here?
A: 1.77[b]

Q: What about the log p (physchem) of the same molecule?
A: 2.79[c];

Q: With `O=C1CCCN1c1cccc(Nc2ncc(Cl)c(N3CCSCC3)n2)c1` [Example 228] as the molecule, how does the log p [1] read?
A: 2.63[b]

Q: And the log p (physchem)?
A: 3.01[c];

Q: For `CC1CC1Nc1nc(Nc2cccc(N3CCCC3=O)c2)ncc1Br` (stereo not drawn) [Example 229], which log p [1] is on record?
A: 1.84[b]

Q: And the log p (physchem)?
A: 2.82[c];

Q: With `C[C@H]1COC(=O)N1c1cccc(Nc2ncc(Cl)c(N3CCC3)n2)c1` [Example 230] as the molecule, how does the log p [1] read?
A: 1.58[b]

Q: What about the log p (physchem) of the same molecule?
A: 2.75[c];

Q: Which log p (physchem) does the source give for `O=C1CCC(=O)N1Cc1cccc(Nc2ncc(Cl)c(NC3CC3)n2)c1` [Example 235] here?
A: 2.32[c];

Q: Which log p [1] does the source give for `CC1CC1Nc1nc(Nc2cccc(N3C(=O)OCC3C)c2)ncc1Br` (stereo not drawn) [Example 239] here?
A: 1.83[b]

Q: And the log p (physchem)?
A: 2.9[c];

Q: Which results are given for `CC1CC(=O)N(c2cccc(Nc3ncc(C(F)(F)F)c(NC4CC4)n3)c2)C1` (stereo not drawn) [Example 240]?
A: log p [1]: 2.65[b]; log p (physchem): 3.06[c];

Q: For `CC1CCN(c2cccc(Nc3ncc(Cl)c(NC4CC4C)n3)c2)C1=O` (stereo not drawn) [Example 241], which log p [1] is on record?
A: 2.06[b]

Q: And the log p (physchem)?
A: 3.17[c];

Q: Which results are given for `CC1CCC(=O)N1c1cccc(Nc2ncc(C(F)(F)F)c(NC3CC3)n2)c1` (stereo not drawn) [Example 243]?
A: log p [1]: 2.41[b]; log p (physchem): 2.73[c];

Q: For `CC1CC(=O)N(c2cccc(Nc3ncc(C(F)(F)F)c(NC4CC4)n3)c2)C1=O` (stereo not drawn) [Example 244], which log p [1] is on record?
A: 2.29[b]

Q: What about the log p (physchem) of the same molecule?
A: 2.53[c];

Q: For `CC1CC1Nc1nc(Nc2cccc(N3C(=O)CC(C)(C)C3=O)c2)ncc1Cl` (stereo not drawn) [Example 246], which log p [1] is on record?
A: 2.09[b]

Q: And the log p (physchem)?
A: 2.92[c];

Q: Which log p [1] does the source give for `CC1CC(=O)N(c2cccc(Nc3ncc(C(F)(F)F)c(NC4CCC4)n3)c2)C1=O` (stereo not drawn) [Example 247] here?
A: 2.67[b]

Q: And the log p (physchem)?
A: 3.04[c];

Q: With `CC(C)C1COC(=O)N1c1cccc(Nc2ncc(Br)c(NC3CCC3)n2)c1` (stereo not drawn) [Example 248] as the molecule, how does the log p [1] read?
A: 2.54[b]

Q: What about the log p (physchem) of the same molecule?
A: 3.71[c];

Q: Which log p [1] does the source give for `CC(C)C1COC(=O)N1c1cccc(Nc2ncc(C(F)(F)F)c(NC3CC3)n2)c1` (stereo not drawn) [Example 249] here?
A: 3.04[b]

Q: What about the log p (physchem) of the same molecule?
A: 3.34[c];

Q: Which log p [1] does the source give for `CC(C)C1COC(=O)N1c1cccc(Nc2ncc(Br)c(NC3CC3)n2)c1` (stereo not drawn) [Example 250] here?
A: 2.22[b]

Q: And the log p (physchem)?
A: 3.18[c];

Q: With `CC1CCN(c2cccc(Nc3ncc(C(F)(F)F)c(NC4CCC4)n3)c2)C1=O` (stereo not drawn) [Example 251] as the molecule, how does the log p [1] read?
A: 3.16[b]

Q: What about the log p (physchem) of the same molecule?
A: 3.67[c];

Q: With `CC1(Nc2nc(Nc3cccc(N4CCCC4=O)c3)ncc2C(F)(F)F)CC1` [Example 252] as the molecule, how does the log p [1] read?
A: 2.44[b]

Q: What about the log p (physchem) of the same molecule?
A: 2.95[c];

Q: Which log p [1] does the source give for `CC1CC(Nc2nc(Nc3cccc(N4C(=O)CCC4C)c3)ncc2Cl)C1` (stereo not drawn) [Example 253] here?
A: 2.15[b]

Q: And the log p (physchem)?
A: 3.16[c];

Q: For `CC1CC(Nc2nc(Nc3cccc(N4CCOC4=O)c3)ncc2Cl)C1` (stereo not drawn) [Example 256], which log p (physchem) is on record?
A: 2.99[c]

Q: Which results are given for `CC1CC(Nc2nc(Nc3cccc(N4C(=O)CC(C)(C)C4=O)c3)ncc2Br)C1` (stereo not drawn) [Example 257]?
A: log p [1]: 2.58[b]; log p (physchem): 3.66[c];

Q: Which log p [1] does the source give for `O=C1CCC(C(F)(F)F)N1c1cccc(Nc2ncc(Br)c(NC3CCC3)n2)c1` (stereo not drawn) [Example 258] here?
A: 2.3[b]

Q: And the log p (physchem)?
A: 3.24[c];

Q: Which log p [1] does the source give for `CC1CC(Nc2nc(Nc3cccc(N4C(=O)CC(C)(C)C4=O)c3)ncc2Cl)C1` (stereo not drawn) [Example 259] here?
A: 2.43[b]

Q: And the log p (physchem)?
A: 3.22[c];

Q: For `CC1COC(=O)N1c1cccc(Nc2ncc(C(F)(F)F)c(NC3CC3)n2)c1` (stereo not drawn) [Example 261], which log p (physchem) is on record?
A: 2.7[c];

Q: For `CC(C)Nc1nc(Nc2cccc(N3C(=O)OCC3C)c2)ncc1Br` (stereo not drawn) [Example 262], which log p (physchem) is on record?
A: 2.83[c];

Q: For `COc1ccc(Nc2ncc(Cl)c(NC3CC3)n2)cc1N1CCCC1=O` [Example 328], which log p (physchem) is on record?
A: 2.18[c];
